Measured values as given in patent publication US20110093959A1, “CRYPTOTIS PARVA SCREENING MODEL FOR ANTIEMETIC POTENTIAL” (priority 2008, published 2011).
Values joined by “and” are separate entries in the source; they are usually repeats but may differ in a detail not shown here. Equal entries are not always repeated.

Assays:
Assay type in all cases: in vivo, Cryptotis parva
[1] = test system: CIS-induced vomiting in the Least Shrew; test: THC and SR141716A on CIS (10 mg/kg)-induced vomiting, acute and delayed phase; settings: CIS 10 mg/kg i.p., Δ^9-THC 2.5 mg/kg i.p., SR141716A 2 mg/kg i.p.
[2] = test system: CIS-induced emesis in the Least Shrew; test: Tropisetron, Δ^9-THC and dexamethasone alone or in combination against CIS (20 mg/kg)-induced emesis, 60 min
Protocol: Briefly, all animals were randomly divided into two groups. On the test day, shrews were habituated to the laboratory environment for at least 1 hr prior to experimentation. […] All drugs were administered at a volume of 0.1 ml/10 g body weight. Immediately following the second injection, each shrew was placed in the observation cage, and both the number of animals vomiting per group and the frequency of vomiting (oral ejections of food or liquid) were recorded for the next 60 min
Poisson regression and logistic regression analyses were employed for two-way analysis of vomiting frequency and protection from emesis, respectively. […] Data regarding the frequency of emesis were analyzed by the Kruskal-Wallis nonparametric one-way analysis of variance (ANOVA), and post hoc analysis by Dunn's multiple comparisons test. The incidence of emesis (number of animals vomiting) was analyzed by Fisher's exact test to determine whether there were differences between groups, and when appropriate, pairwise comparisons were also made. A p value of<0.05 was necessary to achieve statistical significance.

Fos = Fos expression in the dorsal vagal complex resulting from CIS-induced vomiting
Protocol: After the appropriate time period for acute or delayed phase vomiting, shrews were anesthetized with a lethal dose of pentobarbital (100 mg/kg) and perfused transcardially via blunted needle with a peristaltic pump. The shrew was perfused with ice cold 4% paraformaldehyde and 5% picric acid in pH 7.4, 0.1 M phosphate buffer (10 min). Brains were removed and stored in 30% sucrose in 0.1 M PB overnight, then embedded in blocks of 12% gelatin in 30% sucrose/PB. The blocks were postfixed for 3 hr in 2% paraformaldehyde/PB, then rinsed and immersed in 30% sucrose/PB until they sank (usually 1-2 hr). The brain block was cut sagittally on a freezing benchtop microtome (Leica) at 30 μm into 5 series, and stored in PB with 0.03% sodium azide.
Immunolabeling was accomplished by blocking a free-floating series with 10% normal horse serum (NHS) and 3% hydrogen peroxide in PB with 0.3% Tri-ton X-100 (TX) for 30 min. After rinsing in PB, tissue was put in sheep anti-Fos polyclonal antibody (Chemicon/Millipore, Temecula, Calif.; 1:600), with 5% NHS and 0.3% TX in PB, and incubated for about 42 hr at room temperature (RT) with gentle shaking. After rinsing in PB, the tissue was placed in biotinylated donkey anti-sheep IgG secondary antibody (Jackson Immunoresearch, West Grove, Pa.; 1:600) diluted in the same diluent described for the primary antibody, and the tissue incubated at RT with shaking for 75 min Tissue was then rinsed and incubated for 60 min in HRP-conjugated avidin-biotin complex (Vector Labs, Burlingame, Calif.; Vectastain kit diluted 1:2) in PB. Tissue was then rinsed twice in PB, then once in imidazole-acetate buffer (0.1 M, pH 7.4), then reacted for 6 min in 0.0006% hydrogen peroxide with 2% nickel ammonium sulfate-enhanced diaminobenzidine (DAB, 0.05% in 0.1 M imidazole-acetate buffer). All reagents for DAB processing were purchased from Sigma-Aldrich. […]

[3] = 1 mg/kg i.p., administered alone
[4] = 5 mg/kg i.p., administered alone
[5] = Δ^9-THC 1 mg/kg with 0.1 mg/kg tropisetron
[6] = Δ^9-THC 5 mg/kg with 0.025 mg/kg tropisetron
[7] = Δ^9-THC 5 mg/kg with 0.1 mg/kg tropisetron
[8] = Δ^9-THC 5 mg/kg with 0.25 mg/kg tropisetron

CCCCCc1cc(O)c2c(c1)OC(C)(C)[C@@H]1CCC(C)=C[C@@H]21 [Δ^9-THC, Δ^9-tetrahydrocannabinol]
Number vomited per total in group ([1]; Acute phase): 1/8 | Number vomited per total in group ([1]; Delayed phase): 2/9 | reduction in frequency of CIS-induced emesis ([2]; 0.25 mg/kg i.p., administered alone): 59.3% | reduction in frequency of CIS-induced emesis ([2]; 0.5 mg/kg i.p., administered alone): 66.7% | reduction in frequency of CIS-induced emesis [2, 3]: 83.7% | reduction in percentage of shrews vomiting in response to CIS [2, 3]: 64% | reduction in percentage of shrews vomiting in response to CIS ([2]; 2.5 mg/kg i.p., administered alone): 83.3% and 83% | reduction in frequency of CIS-induced emesis [2, 4]: 96.7% | reduction in percentage of shrews vomiting in response to CIS [2, 4]: 92% and 91.6% | reduction in percentage of shrews vomiting in response to CIS ([2]; 10 mg/kg i.p., administered alone): 100% | additive or synergistic effect on percentage of animals vomiting ([2]; tested combinations of Δ^9-THC and tropisetron): no additive or synergistic antiemetic effects | reduction in frequency of vomiting ([2]; Δ^9-THC 0.25 mg/kg coadministered with 5 mg/kg DEX): 55.5% | reduction in percentage of shrews vomiting in response to CIS ([2]; Δ^9-THC 0.25 mg/kg in shrews pretreated with 5 mg/kg DEX): 42% | reduction in frequency of CIS-induced emesis ([2]; Δ^9-THC 0.25 mg/kg with 0.025 mg/kg tropisetron): 72.6% | reduction in frequency of CIS-induced emesis ([2]; Δ^9-THC 0.25 mg/kg with 0.1 mg/kg tropisetron): 69.7% | reduction in frequency of CIS-induced emesis ([2]; Δ^9-THC 0.5 mg/kg with 0.025 mg/kg tropisetron): 56.1% | reduction in frequency of CIS-induced emesis ([2]; Δ^9-THC 0.5 mg/kg with 0.1 mg/kg tropisetron): 74.6% | reduction in frequency of CIS-induced emesis ([2]; Δ^9-THC 1 mg/kg with 0.025 mg/kg tropisetron): 61.6% | reduction in frequency of CIS-induced emesis [2, 5]: 88% | reduction in number of shrews vomiting [2, 5]: 77% | reduction in frequency of CIS-induced emesis ([2]; Δ^9-THC 1 mg/kg with 0.25 mg/kg tropisetron): 91% | reduction in percentage of shrews vomiting in response to CIS ([2]; Δ^9-THC 2.5 mg/kg with DEX 0.25 mg/kg): 77% | reduction in percentage of shrews vomiting in response to CIS ([2]; Δ^9-THC 2.5 mg/kg with DEX 1 mg/kg): 92% | reduction in percentage of shrews vomiting in response to CIS ([2]; Δ^9-THC 2.5 mg/kg with DEX 5 mg/kg): 79% | reduction in percentage of shrews vomiting in response to CIS ([2]; Δ^9-THC 2.5 mg/kg with DEX 10 mg/kg): 77% | reduction in percentage of shrews vomiting in response to CIS ([2]; Δ^9-THC 2.5 mg/kg with DEX 20 mg/kg): 50% | reduction in frequency of CIS-induced emesis [2, 6]: 86.3% | reduction in percentage of shrews vomiting in response to CIS [2, 6]: 75% | reduction in frequency of CIS-induced emesis [2, 7]: 97.7% | reduction in percentage of shrews vomiting in response to CIS [2, 7]: 88% | reduction in frequency of CIS-induced emesis [2, 8]: 100% | reduction in percentage of shrews vomiting in response to CIS [2, 8]: 100% | reduction in percentage of shrews vomiting in response to CIS ([2]; Δ^9-THC 5 mg/kg with DEX 0.25 mg/kg): 83% | reduction in percentage of shrews vomiting in response to CIS ([2]; Δ^9-THC 5 mg/kg with DEX 1 mg/kg): 92% | reduction in percentage of shrews vomiting in response to CIS ([2]; Δ^9-THC 5 mg/kg with DEX 5 mg/kg): 77% | reduction in percentage of shrews vomiting in response to CIS ([2]; Δ^9-THC 5 mg/kg with DEX 10 mg/kg): 92% | reduction in percentage of shrews vomiting in response to CIS ([2]; Δ^9-THC 5 mg/kg with DEX 20 mg/kg): 77% | reduction in percentage of shrews vomiting in response to CIS ([2]; Δ^9-THC 10 mg/kg with DEX 0.25 mg/kg): 92% | reduction in percentage of shrews vomiting in response to CIS ([2]; Δ^9-THC 10 mg/kg with DEX 1 mg/kg): 83% | reduction in percentage of shrews vomiting in response to CIS ([2]; Δ^9-THC 10 mg/kg with DEX 5 mg/kg): 67% | reduction in percentage of shrews vomiting in response to CIS ([2]; Δ^9-THC 10 mg/kg with DEX 10 mg/kg): 92% | reduction in percentage of shrews vomiting in response to CIS ([2]; Δ^9-THC 10 mg/kg with DEX 20 mg/kg): 75% | combination efficacy in reducing the frequency of emesis ([2]; Δ^9-THC 0.25 and 0.5 mg/kg combined with tropisetron 0.025 and 0.1 mg/kg): significantly greater additive efficacy | effect on frequency of emesis ([2]; Δ^9-THC combined with 1 mg/kg or 5 mg/kg tropisetron): failed to produce significant reductions | additive or synergistic antiemetic activity ([2]; Δ^9-THC combined with DEX, at the doses tested): no significant additive or synergistic antiemetic activity | number of Fos-immunopositive nuclei vs vehicle injections (Fos; acute phase of CIV, NTS, AP and DMNX): significantly (P<0.05) reduced | number of Fos-immunopositive nuclei vs vehicle-injected animals (Fos; delayed phase, NTS and DMNX): significantly fewer
